Test results as given in US20210163451A1, “METHODS AND COMPOSITIONS FOR SUBSTITUTED 2,5-DIKETOPIPERAZINE ANALOGS” (University of Florida Research Foundation, Inc., priority 2018, published 2021).

Columns and labels:
Type in all cases: biochemical, S. scabies 87.22
TxtB = TxtB substrate scope in TxtA/TxtB reactions; set-up: key to TxtB substrate: +++++: Five ‘+’ represents the strong reactivity; ++++: The number of ‘+’ represents the reactivities of the enzymes to the substrate; +++: The number of ‘+’ represents the reactivities of the enzymes to the substrate; ++: The number of ‘+’ represents the reactivities of the enzymes to the substrate; +: one represent very weak reactivities
Procedure: Using the above strategy, it was determined that TxtB accepted only I-Trp among all 20 natural amino acids in the reaction (FIG. 2B, Table 1). When incubating with 15 I-Trp analogs with various substituents at α-position or C4, C5, C6 and C7 of I-Trp indole (Table 1), TxtB was able to use 4-F, 4-Me, 5-F, and 6-F-tryptophan as substrates in the DKP synthesis (Table 1). […] Indeed, the Micklefield group recently produced several thaxtomin analogs with C4-H, F, Cl, Br, or Me when expressing txtA/B in S. albus. The advanced understanding of substrate scopes of TxtA/B led to enzymatic creation of a library of 30 DKPs with 5 I-Trp analogs and 6 I-Phe analogs (FIG. 3C). The production of all DKPs were confirmed in HPLC analysis and verified in high resolution LC-MS analysis (Table 2).
(§1) TxtA/B reaction: 100 mM Tris-Cl (PH=8.0), 0.5 mM Nitro-L-tryptophan or L-tryptophan, 0.55 mM L-Phenylalanine, 3.2 μM txtA, 14.5 μM txtB, 2.5 mM ATP and 2 mM SAM in 100 μL reaction. 21° C. shaken with 400 rpm for 20 hours.
To probe the basis of chemical diversity of Thx DKP scaffold, next characterized was the substrate scopes of TxtA and TxtB. […] Bulkier aryl substituents decreased enzyme activity. […] From the modelled structure of TxtA adenylation (A) domain (FIG. 23), it was identified that Trp225 likely controls the binding of bulky L-Phe analogues. Indeed, the TxtA W225S mutant [Kries, H. et al. Angew. Chem. Int. Ed. Engl. […] We confirmed the product as p-azido-Thx D by HRMS, MS/MS, 1D and 2D NMR analysis (FIGS. 24-25). The substrate preference of TxtB was then assessed. […] Additionally, TxtB utilized 4F-L-, 5F-L-, 4Me-D,L- and 6F-D,L-Trp out of 15 L-Trp analogues carrying various substituents (Table 7) as substrates to synthesize desnitro dimethylated DKP analogues (FIG. 22). […] The tolerance to small modifications on L-Trp indole by TxtB agreed with a recent in vivo study by the Micklefield group [Winn, M. et al. Angew. Chem. Int. Ed. Engl. 2018 57:6830-6833]. […] Chem. Biol. 2018 14: 428-430].
(§2) The TxtA/B reaction solutions (100 μl) typically contained 100 mM Tris-Cl, pH 9.0, 0.5 mM amino acid substrates, 10 mM MgCl2, 2.5 mM ATP and 2 mM SAM. The reactions were initiated by adding 1.2 μM TxtA and 1.3 μM TxtB (final concentration) and incubated at 21° C. with shaking at 400 rpm. After 30 h, the reactions were terminated by mixing with 200 μl of methanol. Quenched solutions were centrifuged at 4° C., 16,000×g for 15 min and clear supernatants were collected and subjected to HPLC and LCMS analysis as detailed below. All experiments were repeated independently at least twice. The reaction solutions of TB14 and TxtA and TxtB were the same as those of TxtA and TxtB except the inclusion of 1.5 mM NAPDH, 0.75 mM NOC-5 and 11.1 μM TB14. The reactions were run for 30 h and the products were analyzed and quantitated as described above.

TxtA = TxtA substrate scope in TxtA/TxtB reactions
Procedure: To explore whether TxtA/B are versatile to generate a library of thaxtomin D analogs, enzymes' substrate tolerance was then examined in the reactions. […] Subsequently, the substrate scope of TxtA with 17 I-Phe analogs was assessed with various substituents at α-position or C2, C3, and C4 of the aryl group (Table 1).
as §1
(§3) TB14 and txtA/B coupling reaction: 100 mM Tris-Cl (PH=8.0), 0.5 mM L-tryptophan, 0.55 mM L-Phenylalanine, 1.5 mM NAPDH, 0.75 mM NOC-5, 3.2 μM txtA, 14.5 μM txtB, 2.5 mM ATP, 2 mM SAM and 11.1 μM TB14 in 100 μL reaction. Opened to air, 21° C. shaken with 400 rpm for 30 hours.
(§4) To probe the basis of chemical diversity of Thx DKP scaffold, next characterized was the substrate scopes of TxtA and TxtB. […] Chem. Int. Ed. Engl. […] The substrate preference of TxtB was then assessed. […] Chem. Int. Ed. Engl. 2018 57:6830-6833]. […] Chem. Biol. 2018 14: 428-430].
as §2

TxtA-W225S = TxtA-W225S mutant substrate scope in TxtA/TxtB reactions
Procedure: The nitro group of thaxtomins is essential for herbicidal activity, and is installed by TxtE. […] NADPH, NOC-5 as NO donor and SAM were included in the reaction. […] To further expand the substrate scope of TxtA, Trp225 was mutated into Ser in TxtA.
as §1, §3, §4, §2

[1] = Example 1, TxtA/B reaction with 4-NO2-L-Trp as TxtB substrate
[2] = Example 2, reaction of TB14, TxtA and TxtB

## Cc1cccc2[nH]cc(CC(N)C(=O)O)c12 (racemic) [4Me-D,L-Tryptophan]
TxtB; Table 1, Example 1
  TxtB substrate: ++
TxtB; Table 7, Example 2
  TxtB substrate: +++

## NC(Cc1c[nH]c2cc(F)ccc12)C(=O)O (racemic) [6F-Tryptophan, 6F-D,L-tryptophan]
TxtB; Table 1, Example 1
  TxtB substrate: ++
TxtB; Table 7, Example 2
  TxtB substrate: +

## N[C@@H](Cc1ccccc1Br)C(=O)O [2Br-L-phenylalanine]
TxtA; Table 1, Example 1
  TxtA substrate: +
TxtA; Table 7, Example 2
  TxtA substrate: +

## N[C@@H](Cc1ccccc1F)C(=O)O [2F-L-phenylalanine]
TxtA; [1]
  relative activity of TxtA toward substrate, relative to L-Phe: same level of activity
TxtA; [2]
  relative activity of TxtA toward substrate, relative to L-Phe: ~73%
TxtA; Table 1, Example 1
  TxtA substrate: ++++
TxtA; Table 7, Example 2
  TxtA substrate: ++++

## Cc1ccccc1C[C@H](N)C(=O)O [2Me-L-phenylalanine]
TxtA; Table 1, Example 1
  TxtA substrate: +++
TxtA; Table 7, Example 2
  TxtA substrate: ++

## N[C@@H](Cc1cccc(Br)c1)C(=O)O [3Br-L-phenylalanine]
TxtA; Table 1, Example 1
  TxtA substrate: +
TxtA; Table 7, Example 2
  TxtA substrate: +

## N[C@@H](Cc1cccc(Cl)c1)C(=O)O [3Cl-L-phenylalanine]
TxtA; Table 1, Example 1
  TxtA substrate: ++
TxtA; Table 7, Example 2
  TxtA substrate: +

## N[C@@H](Cc1cccc(F)c1)C(=O)O [3F-L-phenylalanine]
TxtA; [1]
  relative activity of TxtA toward substrate, relative to L-Phe: same level of activity
TxtA; [2]
  relative activity of TxtA toward substrate, relative to L-Phe: equally active
TxtA; Table 1, Example 1
  TxtA substrate: +++++
TxtA; Table 7, Example 2
  TxtA substrate: +++++

## Cc1cccc(C[C@H](N)C(=O)O)c1 [3Me-L-phenylalanine]
TxtA; [1]
  relative activity of TxtA toward substrate, relative to L-Phe: about 12%
TxtA; [2]
  relative activity of TxtA toward substrate, relative to L-Phe: about 27%
TxtA; Table 1, Example 1
  TxtA substrate: ++
TxtA; Table 7, Example 2
  TxtA substrate: ++

## [N-]=[N+]=Nc1ccc(C[C@H](N)C(=O)O)cc1 [4-Azidophenylalanine]
TxtA; [2]
  relative activity of TxtA toward substrate, relative to L-Phe: did not accept
TxtA-W225S; Example 1
  substrate preference of TxtAW225S mutant: strong preference
TxtA-W225S; Example 2, reaction with TB14, TxtA and TxtB
  substrate preference of TxtA W225S mutant: strong preference over L-Phe
TxtA-W225S; Table 1, Example 1
  TxtA-W225S substrate: ++
TxtA-W225S; Table 7, Example 2
  TxtAW225S substrate: ++

## N[C@@H](Cc1c[nH]c2cccc([N+](=O)[O-])c12)C(=O)O [4-nitro-L-Tryptophan]
TxtB; Table 1, Example 1
  TxtB substrate: +++++
TxtB; Table 7, Example 2
  TxtB substrate: +++++

## N[C@@H](Cc1ccc(Br)cc1)C(=O)O [4Br-L-phenylalanine]
TxtA; Table 1, Example 1
  TxtA substrate: +
TxtA; Table 7, Example 2
  TxtA substrate: +

## N[C@@H](Cc1ccc(Cl)cc1)C(=O)O [4Cl-L-phenylalanine]
TxtA; Table 1, Example 1
  TxtA substrate: ++
TxtA; Table 7, Example 2
  TxtA substrate: +

## N[C@@H](Cc1c[nH]c2cccc(F)c12)C(=O)O [4F--Tryptophan, 4F-L-tryptophan]
TxtB; Table 1, Example 1
  TxtB substrate: +
TxtB; Table 7, Example 2
  TxtB substrate: +
